target: GST-tagged truncated human mutant G2019S LRRK2 (Homo sapiens (Human), UniProt Q5S007, G2019S); assay: LRRK2 Km ATP LanthaScreen Assay; type: biochemical; conditions: 134 μM ATP (Km ATP); fluorescein-labeled LRRKtide substrate; mean IC50 values
Description: Unless otherwise noted, all LRRK2 IC50 data presented in tables refers to the LRRK2 Km ATP LanthaScreen™ Assay that is described in the Biological Assay section.
Biological Assay: LRRK2 Km ATP LanthaScreen™ Assay
The LRRK2 kinase activity reported herein as IC50 values was determined with LanthaScreen™ technology from Life Technologies Corporation (Carlsbad, Calif.) using GST-tagged truncated human mutant G2019S LRRK2 in the presence of the fluorescein-labeled peptide substrate LRRKtide, also from Life Technologies. The data presented for the Km ATP LanthaScreen™ Assay represents mean IC50 values based on several test results and may have reasonable deviations depending on the specific conditions and reagents used. Assays were performed in the presence of 134 μM ATP (Km ATP). Upon completion, the assay was stopped and phosphorylated substrate detected with a terbium (Tb)-labeled anti-pERM antibody (cat. no. PV4898). The compound dose response was prepared by diluting a 10 mM stock of compound to a maximum concentration of 9.99 μM in 100% dimethylsulfoxide followed by custom fold serial dilution in dimethylsulfoxide nine times. Twenty nanoliters of each dilution was spotted via a Labcyte Echo onto a 384-well black-sided plate (Corning 3575) followed by 15 μl of a 1.25 nM enzyme solution in 1× assay buffer (50 mM Tris pH 8.5, 10 mM MgCl2, 0.01% Brij-35, 1 mM EGTA, 2 mM dithiothreitol, 0.05 mM sodium orthovanadate) Following a 15-minute incubation at room temperature, the kinase reaction was started with the addition of 5 μl of 400 nM fluorescein-labeled LRRKtide peptide substrate and 134 μM ATP solution in 1× assay buffer. The reaction was allowed to progress at ambient temperature for 90 minutes. The reaction was then stopped by the addition of 20 μl of TR-FRET Dilution Buffer (Life Technologies, Carlsbad, Calif.) containing 2 nM Tb-labeled anti-phospho LRRKtide antibody and 10 mM EDTA (Life Technologies, Carlsbad, Calif.). After an incubation of 1 hour at room temperature, the plate was read on an EnVision multimode plate reader (Perkin Elmer, Waltham, Mass.) with an excitation wavelength of 337 nm (Laser) and a reading emission at both 520 and 495 nm. Compound IC50s were interpolated from nonlinear regression best fits of the log of the final compound concentration, plotted as a function of the 520/495-nm emission ratio using Activity base. Abase uses a 4 parameter (4P) logistic fit based on the Levenberg-Marquardt algorithm.

Chain of GST-tagged truncated human mutant G2019S LRRK2 (Q5S007 970-2527 G2019S): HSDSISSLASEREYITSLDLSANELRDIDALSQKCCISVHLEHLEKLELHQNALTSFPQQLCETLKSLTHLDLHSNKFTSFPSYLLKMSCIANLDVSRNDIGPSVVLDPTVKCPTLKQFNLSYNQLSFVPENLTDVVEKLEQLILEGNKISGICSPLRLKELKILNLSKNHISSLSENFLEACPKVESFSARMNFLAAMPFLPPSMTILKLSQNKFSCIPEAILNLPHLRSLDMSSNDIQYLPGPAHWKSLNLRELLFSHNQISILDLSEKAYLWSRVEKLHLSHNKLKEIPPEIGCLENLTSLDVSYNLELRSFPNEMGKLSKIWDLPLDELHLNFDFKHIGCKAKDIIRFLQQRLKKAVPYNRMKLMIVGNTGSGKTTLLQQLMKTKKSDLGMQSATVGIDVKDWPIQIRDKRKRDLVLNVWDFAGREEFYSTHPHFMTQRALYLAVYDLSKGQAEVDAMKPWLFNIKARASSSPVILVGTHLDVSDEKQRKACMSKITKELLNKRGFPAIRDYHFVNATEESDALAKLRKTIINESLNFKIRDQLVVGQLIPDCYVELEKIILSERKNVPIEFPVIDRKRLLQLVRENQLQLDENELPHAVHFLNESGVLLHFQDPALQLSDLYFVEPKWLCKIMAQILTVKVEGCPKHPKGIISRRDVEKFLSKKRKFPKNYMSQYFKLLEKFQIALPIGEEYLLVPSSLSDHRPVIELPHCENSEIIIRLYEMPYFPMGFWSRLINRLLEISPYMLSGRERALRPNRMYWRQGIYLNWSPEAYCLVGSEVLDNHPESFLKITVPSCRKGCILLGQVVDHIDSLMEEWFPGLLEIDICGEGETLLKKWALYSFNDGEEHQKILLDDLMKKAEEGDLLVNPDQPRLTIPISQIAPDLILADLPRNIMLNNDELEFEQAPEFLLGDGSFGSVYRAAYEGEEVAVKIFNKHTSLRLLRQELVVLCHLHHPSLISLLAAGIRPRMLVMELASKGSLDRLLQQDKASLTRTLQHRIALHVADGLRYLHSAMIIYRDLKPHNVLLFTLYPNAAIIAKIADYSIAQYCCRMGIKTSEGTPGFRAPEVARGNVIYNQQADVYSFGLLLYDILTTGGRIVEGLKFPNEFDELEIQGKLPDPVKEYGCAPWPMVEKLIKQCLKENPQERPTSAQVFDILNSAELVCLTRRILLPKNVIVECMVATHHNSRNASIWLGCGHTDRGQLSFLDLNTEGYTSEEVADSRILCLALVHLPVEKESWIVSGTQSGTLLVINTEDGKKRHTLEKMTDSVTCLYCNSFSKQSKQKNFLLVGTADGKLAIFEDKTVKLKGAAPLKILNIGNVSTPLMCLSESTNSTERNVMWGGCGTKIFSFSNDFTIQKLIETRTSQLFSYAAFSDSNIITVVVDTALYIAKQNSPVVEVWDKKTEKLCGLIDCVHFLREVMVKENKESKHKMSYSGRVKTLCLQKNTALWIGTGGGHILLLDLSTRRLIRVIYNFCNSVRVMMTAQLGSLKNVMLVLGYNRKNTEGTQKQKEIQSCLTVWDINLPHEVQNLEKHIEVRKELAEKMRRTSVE

CC1CC12CC(C#N)(c1ccc3cnn(-c4cc(N5CCN6CCOC[C@@H]6C5)ncn4)c3c1)C2 (single isomer, unassigned) [Example 51] and CC1C2(CC2)CC1(C#N)c1ccc2cnn(-c3cc(N4CCN5CCOC[C@@H]5C4)ncn3)c2c1 (single isomer, unassigned) [Example 53] are within 1.5-fold of each other in IC50: 9.8 nM for the first, 7.9 nM for the second.

CC1CC12CC(C#N)(c1ccc3cnn(-c4cc(N5CCN6CCOC[C@@H]6C5)ncn4)c3c1)C2 (single isomer, unassigned) [Example 52] and CC1C2(CC2)CC1(C#N)c1ccc2cnn(-c3cc(N4CCN5CCOC[C@@H]5C4)ncn3)c2c1 (single isomer, unassigned) [Example 54] are within 1.5-fold of each other in IC50: 2.4 nM for the first, 1.7 nM for the second.

First: CC1C2(CC2)CC1(C#N)c1ccc2cnn(-c3cc(N4CCN5CCOC[C@@H]5C4)ncn3)c2c1 (single isomer, unassigned) [Example 55]
Second: C[C@H]1CN(c2cc(-n3ncc4ccc(C5(C#N)CC6(CC6)C5)cc43)ncn2)CCN1C1COC1 [Example 13, (S)-5-(1-(6-(3-methyl-4-(oxetan-3-yl)piperazin-1-yl)pyrimidin-4-yl)-1H-indazol-6-yl)spiro[2.3]hexane-5-carbonitrile]
The IC50 of the first is 34-fold higher: 34 nM for the first, 1 nM for the second.

CC1C2(CC2)CC1(C#N)c1ccc2cnn(-c3cc(N4CCN5CCOC[C@@H]5C4)ncn3)c2c1 (single isomer, unassigned) [Example 56] and N#CC1(c2ccc3cnn(-c4cc(N5CCO[C@H](CO)C5)ncn4)c3c2)CC2(CC2)C1 [Example 14, (S)-5-(1-(6-(2-(hydroxy-methyl)morpholino)pyrimidin-4-yl)-1H-indazol-6-yl)spiro[2.3]hexane-5-carbonitrile] are within 1.5-fold of each other in IC50: 3 nM for the first, 2.9 nM for the second.

N#CC1(c2ccc3cnn(-c4cc(N5CC[C@@H](O)[C@@H](F)C5)ncn4)c3c2)CC2(CC2)C1 [Example 1, 5-(1-(6-((3S,4R)-3-fluoro-4-hydroxypiperidin-1-yl)pyrimidin-4-yl)-1H-indazol-6-yl)spiro[2.3]hexane-5-carbonitrile] and N#CC1(c2ccc3cnn(-c4cc(N5CC[C@H](O)[C@@H](F)C5)ncn4)c3c2)CC2(CC2)C1 [Example 6, 5-(1-(6-((3S,4S)-3-fluoro-4-hydroxypiperidin-1-yl)pyrimidin-4-yl)-1H-indazol-6-yl)spiro[2.3]hexane-5-carbonitrile] are within 1.5-fold of each other in IC50: 4.4 nM for the first, 6.2 nM for the second.

Going from Cc1nc(N2CC[C@H](O)[C@@H](F)C2)cc(-n2ncc3ccc(C4(C#N)CC5(CC5)C4)cc32)n1 [Example 2, 5-(1-(6-((3S,4S)-3-fluoro-4-hydroxypiperidin-1-yl)-2-methylpyrimidin-4-yl)-1H-indazol-6-yl)spiro[2.3]hexane-5-carbonitrile] to Cc1nc(N2CC[C@H](O)[C@H](F)C2)cc(-n2ncc3ccc(C4(C#N)CC5(CC5)C4)cc32)n1 [Example 3, 5-(1-(6-((3R,4S)-3-fluoro-4-hydroxypiperidin-1-yl)-2-methylpyrimidin-4-yl)-1H-indazol-6-yl)spiro[2.3]hexane-5-carbonitrile], the IC50 rises from 5.1 nM to 18 nM (3.5-fold). The first is the more potent here.

Going from Cc1nc(N2CC[C@@H](O)[C@@H](F)C2)cc(-n2ncc3ccc(C4(C#N)CC5(CC5)C4)cc32)n1 [Example 4, 5-(1-(6-((3S,4R)-3-fluoro-4-hydroxypiperidin-1-yl)-2-methylpyrimidin-4-yl)-1H-indazol-6-yl)spiro[2.3]hexane-5-carbonitrile] to Cc1nc(N2CC[C@@H](C(C)(C)O)C2)cc(-n2ncc3ccc(C4(C#N)CC5(CC5)C4)cc32)n1 [Example 10, (R)-5-(1-(6-(3-(2-hydroxypropan-2-yl)pyrrolidin-1-yl)-2-methylpyrimidin-4-yl)-1H-indazol-6-yl)spiro[2.3]hexane-5-carbonitrile], the IC50 falls from 7.4 nM to 3.8 nM (1.9-fold).

Cc1nc(N2CC3(C(C)(C)O)CC2C3)cc(-n2ncc3ccc(C4(C#N)CC5(CC5)C4)cc32)n1 [Example 5, 5-(1-(6-(4-(2-hydroxypropan-2-yl)-2-azabicyclo[2.1.1]hexan-2-yl)-2-methylpyrimidin-4-yl)-1H-indazol-6-yl)spiro[2.3]hexane-5-carbonitrile] and COCc1nc(N2CC3(C(C)(C)O)CC2C3)cc(-n2ncc3ccc(C4(C#N)CC5(CC5)C4)cc32)n1 [Example 20, 5-(1-(6-(4-(2-hydroxypropan-2-yl)-2-azabicyclo[2.1.1]hexan-2-yl)-2-(methoxy-methyl)pyrimidin-4-yl)-1H-indazol-6-yl)spiro[2.3]hexane-5-carbonitrile] are within 1.5-fold of each other in IC50: 12.3 nM for the first, 16.2 nM for the second.

Going from N#CC1(c2ccc3cnn(-c4cc(N5CC6(CO)CC5C6)ncn4)c3c2)CC2(CC2)C1 [Example 7, 5-(1-(6-(4-(hydroxymethyl)-2-azabicyclo[2.1.1]hexan-2-yl)pyrimidin-4-yl)-1H-indazol-6-yl)spiro[2.3]hexane-5-carbonitrile] to COCC12CC(C1)N(c1cc(-n3ncc4ccc(C5(C#N)CC6(CC6)C5)cc43)ncn1)C2 [Example 9, 5-(1-(6-(4-(methoxymethyl)-2-azabicyclo[2.1.1]hexan-2-yl)pyrimidin-4-yl)-1H-indazol-6-yl)spiro[2.3]hexane-5-carbonitrile], the IC50 rises from 1.5 nM to 9.3 nM (6.2-fold).

Compared with N#CC1(c2ccc3cnn(-c4cc(N5CC[C@@H](CO)C5)ncn4)c3c2)CC2(CC2)C1 [Example 8, (R)-5-(1-(6-(3-(hydroxy-methyl)pyrrolidin-1-yl)pyrimidin-4-yl)-1H-indazol-6-yl)spiro[2.3]hexane-5-carbonitrile], CC(C)(O)[C@@H]1CCN(c2cc(-n3ncc4ccc(C5(C#N)CC6(CC6)C5)cc43)ncn2)C1 [Example 11, (R)-5-(1-(6-(3-(2-hydroxypropan-2-yl)pyrrolidin-1-yl)pyrimidin-4-yl)-1H-indazol-6-yl)spiro[2.3]hexane-5-carbonitrile] is 3.2-fold lower in IC50: 2.9 nM for the first, 0.9 nM for the second. The second is the more potent here.

Compared with CC(C)(O)C12CC(C1)N(c1cc(-n3ncc4ccc(C5(C#N)CC6(CC6)C5)cc43)ncn1)C2 [Example 12, 5-(1-(6-(4-(2-hydroxypropan-2-yl)-2-azabicyclo[2.1.1]hexan-2-yl)pyrimidin-4-yl)-1H-indazol-6-yl)spiro[2.3]hexane-5-carbonitrile], CC(C)(O)C12CC(C1)N(c1cc(-n3ncc4cnc(C5(C#N)CC6(CC6)C5)cc43)ncn1)C2 [Example 18, 5-(1-(6-(4-(2-hydroxypropan-2-yl)-2-azabicyclo[2.1.1]hexan-2-yl)pyrimidin-4-yl)-1H-pyrazolo[4,3-c]pyridin-6-yl)spiro[2.3]hexane-5-carbonitrile] is 7.4-fold higher in IC50: 2.6 nM for the first, 19.2 nM for the second.

C[C@@H]1CN(c2cc(-n3ncc4ccc(C5(C#N)CC6(CC6)C5)cc43)ncn2)C[C@H](C)[C@]1(C)O [Example 17, 5-(1-(6-((3S,4s,5R and 3R,4s,5S)-4-hydroxy-3,4,5-trimethylpiperidin-1-yl)pyrimidin-4-yl)-1H-indazol-6-yl)spiro[2.3]hexane-5-carbonitrile] and CC(C)(O)[C@@H]1CCN(c2cc(-n3ncc4cnc(C5(C#N)CC6(CC6)C5)cc43)ncn2)C1 [Example 19, (R)-5-(1-(6-(3-(2-hydroxypropan-2-yl)pyrrolidin-1-yl)pyrimidin-4-yl)-1H-pyrazolo[4,3-c]pyridin-6-yl)spiro[2.3]hexane-5-carbonitrile] are within 1.5-fold of each other in IC50: 8.9 nM for the first, 10.7 nM for the second.

Work on COCc1nc(N2CCN(C3COC3)[C@@H](C)C2)cc(-n2ncc3ccc(C4(C#N)CC5(CC5)C4)cc32)n1 [Example 21, (S)-5-(1-(2-(methoxymethyl)-6-(3-methyl-4-(oxetan-3-yl)piperazin-1-yl)pyrimidin-4-yl)-1H-indazol-6-yl)spiro[2.3]hexane-5-carbonitrile] yielded an IC50 of 10.9 nM.
